Experimental data from the supplement of paper PMC13380429.

What was measured:
[1] = test system: A549-ACE2 infected with SARS-CoV-2; assay: SARS-CoV-2 infection rate relative to DMSO; higher = more infection; conditions: 24 h
A549-ACE2 [2] = assay: drug-induced phospholipidosis relative to tamoxifen; higher = more phospholipidosis
Caco-2 [3] = assay: drug sensitivity score (DSS) for viability; higher = more toxic; extreme values may be limits of the assay; conditions: 72 h
Calu-3 [4] = assay: as above; conditions: 72 h
U2OS [5] = assay: as above; conditions: 72 h
HepG2 [6] = assay: as above; conditions: 72 h
Vero E6 [7] = assay: as above; conditions: 72 h
[8] = test system: A549-ACE2 infected with SARS-CoV-2; assay: cell count relative to DMSO; higher = less toxic; conditions: 24 h
Caco-2 [9] = assay: relative viability EC50 (midpoint between 100% and the lowest measured viability); higher = less toxic; conditions: 72 h
Calu-3 [10] = assay: as above; conditions: 72 h
U2OS [11] = assay: as above; conditions: 72 h
Vero E6 [12] = assay: as above; conditions: 72 h
[13] = test system: A549-ACE2 infected with SARS-CoV-2; assay: morphology score (similarity to uninfected cells); higher = more like uninfected cells; conditions: 24 h
A549-ACE2 [14] = assay: phospholipidosis EC50; higher = less potent phospholipidosis inducer
Caco-2 [15] = assay: cell viability relative to DMSO; higher = less toxic; conditions: 72 h
Calu-3 [16] = assay: as above; conditions: 72 h
U2OS [17] = assay: as above; conditions: 72 h
HepG2 [18] = assay: as above; conditions: 72 h
Vero E6 [19] = assay: as above; conditions: 72 h
HepG2 [20] = assay: relative viability EC50 (midpoint between 100% and the lowest measured viability); higher = less toxic; conditions: 72 h

COc1cc(C[C@H]2c3cc(OC)c(OC)cc3CCN2C)c(Oc2cc3c(cc2OC)-c2c(OC)c(OC)cc4c2[C@H](C3)N(C)CC4)cc1OC [thaliblastine]
Conditions	SARS-CoV-2 infection rate [%]	cell count [%]	cell viability [%]	morphology score	phospholipidosis EC50 [µM]
A549-ACE2 [14], 24 h	–	–	–	–	1.3
A549-ACE2 [14], 48 h	–	–	–	–	2.7
A549-ACE2 [14], 72 h	–	–	–	–	6.76
Caco-2 [15], 1 nM	–	–	88.3	–	–
Caco-2 [15], 10 nM	–	–	93.6	–	–
Caco-2 [15], 100 nM	–	–	104	–	–
Caco-2 [15], 1000 nM	–	–	102	–	–
Caco-2 [15], 10000 nM	–	–	86	–	–
Calu-3 [16], 1 nM	–	–	102	–	–
Calu-3 [16], 10 nM	–	–	109	–	–
Calu-3 [16], 100 nM	–	–	97.1	–	–
Calu-3 [16], 1000 nM	–	–	90.2	–	–
Calu-3 [16], 10000 nM	–	–	18.2	–	–
HepG2 [18], 1 nM	–	–	92.4	–	–
HepG2 [18], 10 nM	–	–	111	–	–
HepG2 [18], 100 nM	–	–	96.3	–	–
HepG2 [18], 1000 nM	–	–	105	–	–
HepG2 [18], 10000 nM	–	–	62	–	–
U2OS [17], 1 nM	–	–	94.4	–	–
U2OS [17], 10 nM	–	–	93.9	–	–
U2OS [17], 100 nM	–	–	100	–	–
U2OS [17], 1000 nM	–	–	96.6	–	–
U2OS [17], 10000 nM	–	–	83	–	–
Vero E6 [19], 1 nM	–	–	90.6	–	–
Vero E6 [19], 10 nM	–	–	100	–	–
Vero E6 [19], 100 nM	–	–	89.8	–	–
Vero E6 [19], 1000 nM	–	–	102	–	–
Vero E6 [19], 10000 nM	–	–	96.6	–	–
[1], 0.3 µM	95	–	–	–	–
[1], 3 µM	28	–	–	–	–
[1], 10 µM	21	–	–	–	–
[1], 30 µM	34	–	–	–	–
[8], 0.3 µM	–	109	–	–	–
[8], 3 µM	–	120	–	–	–
[8], 10 µM	–	122	–	–	–
[8], 30 µM	–	115	–	–	–
[13], 0.3 µM	–	–	–	0.32	–
[13], 3 µM	–	–	–	0.61	–
[13], 10 µM	–	–	–	0.29	–
[13], 30 µM	–	–	–	-0.02	–

drug-induced phospholipidosis [%], A549-ACE2 [2]
Conditions	0.3 µM	0.833333 µM	3.33333 µM	6.66667 µM	10 µM	30 µM
24 h	9.75	20.6	72.4	86.2	80.5	65.6
48 h	11.1	12.9	77.4	95.4	104	120
72 h	10.4	12.7	67.9	103	105	154

Conditions	drug sensitivity score	relative viability EC50 [µM]
Caco-2 [3]	0.1	–
Caco-2 [9]	–	> 10
Calu-3 [4]	6.2	–
Calu-3 [10]	–	2.18
HepG2 [6]	1.5	–
U2OS [5]	0.8	–
U2OS [11]	–	> 10
Vero E6 [7]	0	–
Vero E6 [12]	–	> 10

CC(CN1c2ccccc2Sc2ccccc21)N(C)C (centres undefined) [promethazine]
Conditions	SARS-CoV-2 infection rate [%]	cell count [%]	cell viability [%]	morphology score	phospholipidosis EC50 [µM]
A549-ACE2 [14], 24 h	–	–	–	–	7.49
A549-ACE2 [14], 48 h	–	–	–	–	9.37
A549-ACE2 [14], 72 h	–	–	–	–	11.1
Caco-2 [15], 1 nM	–	–	99.8	–	–
Caco-2 [15], 10 nM	–	–	99	–	–
Caco-2 [15], 100 nM	–	–	106	–	–
Caco-2 [15], 1000 nM	–	–	107	–	–
Caco-2 [15], 10000 nM	–	–	92.7	–	–
Calu-3 [16], 1 nM	–	–	112	–	–
Calu-3 [16], 10 nM	–	–	103	–	–
Calu-3 [16], 100 nM	–	–	98.6	–	–
Calu-3 [16], 1000 nM	–	–	103	–	–
Calu-3 [16], 10000 nM	–	–	96.1	–	–
HepG2 [18], 1 nM	–	–	119	–	–
HepG2 [18], 10 nM	–	–	96.4	–	–
HepG2 [18], 100 nM	–	–	78.1	–	–
HepG2 [18], 1000 nM	–	–	103	–	–
HepG2 [18], 10000 nM	–	–	83.3	–	–
U2OS [17], 1 nM	–	–	103	–	–
U2OS [17], 10 nM	–	–	108	–	–
U2OS [17], 100 nM	–	–	97.8	–	–
U2OS [17], 1000 nM	–	–	100	–	–
U2OS [17], 10000 nM	–	–	94.9	–	–
Vero E6 [19], 1 nM	–	–	101	–	–
Vero E6 [19], 10 nM	–	–	95.5	–	–
Vero E6 [19], 100 nM	–	–	99.4	–	–
Vero E6 [19], 1000 nM	–	–	102	–	–
Vero E6 [19], 10000 nM	–	–	80.5	–	–
[1], 0.3 µM	93	–	–	–	–
[1], 3 µM	51	–	–	–	–
[1], 10 µM	63	–	–	–	–
[1], 30 µM	11	–	–	–	–
[8], 0.3 µM	–	103	–	–	–
[8], 3 µM	–	112	–	–	–
[8], 10 µM	–	118	–	–	–
[8], 30 µM	–	115	–	–	–
[13], 0.3 µM	–	–	–	0.09	–
[13], 3 µM	–	–	–	0.72	–
[13], 10 µM	–	–	–	0.76	–
[13], 30 µM	–	–	–	0.72	–

drug-induced phospholipidosis [%], A549-ACE2 [2]
Conditions	0.3 µM	0.833333 µM	3.33333 µM	6.66667 µM	10 µM	30 µM
24 h	1.08	0.17	9.69	43.2	62.1	92
48 h	-0.1	0.2	6.54	31.9	55.6	96.7
72 h	1.14	0.443	8.72	23.6	50.4	102

Conditions	drug sensitivity score	relative viability EC50 [µM]
Caco-2 [3]	0	–
Caco-2 [9]	–	> 10
Calu-3 [4]	0	–
Calu-3 [10]	–	> 10
HepG2 [6]	0.3	–
HepG2 [20]	–	> 10
U2OS [5]	0	–
U2OS [11]	–	> 10
Vero E6 [7]	0.4	–
Vero E6 [12]	–	> 10

CN(C)C[C@H](O)Cn1c2ccc(Br)cc2c2cc(Br)ccc21 (racemic) [wiskostatin]
Conditions	SARS-CoV-2 infection rate [%]	cell count [%]	cell viability [%]	morphology score	phospholipidosis EC50 [µM]
A549-ACE2 [14], 24 h	–	–	–	–	2.73
A549-ACE2 [14], 48 h	–	–	–	–	3.44
A549-ACE2 [14], 72 h	–	–	–	–	4.3
Caco-2 [15], 1 nM	–	–	103	–	–
Caco-2 [15], 10 nM	–	–	105	–	–
Caco-2 [15], 100 nM	–	–	100	–	–
Caco-2 [15], 1000 nM	–	–	97.2	–	–
Caco-2 [15], 10000 nM	–	–	35	–	–
Calu-3 [16], 1 nM	–	–	110	–	–
Calu-3 [16], 10 nM	–	–	95.4	–	–
Calu-3 [16], 100 nM	–	–	123	–	–
Calu-3 [16], 1000 nM	–	–	104	–	–
Calu-3 [16], 10000 nM	–	–	20.7	–	–
HepG2 [18], 1 nM	–	–	108	–	–
HepG2 [18], 10 nM	–	–	105	–	–
HepG2 [18], 100 nM	–	–	107	–	–
HepG2 [18], 1000 nM	–	–	107	–	–
HepG2 [18], 10000 nM	–	–	27.2	–	–
U2OS [17], 1 nM	–	–	103	–	–
U2OS [17], 10 nM	–	–	98.8	–	–
U2OS [17], 100 nM	–	–	104	–	–
U2OS [17], 1000 nM	–	–	99.4	–	–
U2OS [17], 10000 nM	–	–	70.1	–	–
Vero E6 [19], 1 nM	–	–	110	–	–
Vero E6 [19], 10 nM	–	–	110	–	–
Vero E6 [19], 100 nM	–	–	106	–	–
Vero E6 [19], 1000 nM	–	–	100	–	–
Vero E6 [19], 10000 nM	–	–	48.2	–	–
[1], 0.1 µM	107	–	–	–	–
[1], 0.3 µM	98	–	–	–	–
[1], 1 µM	87	–	–	–	–
[1], 3 µM	46	–	–	–	–
[8], 0.1 µM	–	102	–	–	–
[8], 0.3 µM	–	100	–	–	–
[8], 1 µM	–	104	–	–	–
[8], 3 µM	–	119	–	–	–
[13], 0.1 µM	–	–	–	0.02	–
[13], 0.3 µM	–	–	–	0.05	–
[13], 1 µM	–	–	–	0.24	–
[13], 3 µM	–	–	–	0.74	–

drug-induced phospholipidosis [%], A549-ACE2 [2]
Conditions	0.3 µM	0.833333 µM	3.33333 µM	6.66667 µM	10 µM
24 h	5.24	11.9	79.4	108	120
48 h	4.43	7.26	89.6	176	184
72 h	2.67	8.55	92.3	196	231

Conditions	drug sensitivity score	relative viability EC50 [µM]
Caco-2 [3]	3.9	–
Caco-2 [9]	–	2.85
Calu-3 [4]	4	–
Calu-3 [10]	–	3.47
HepG2 [6]	3.5	–
HepG2 [20]	–	3.62
U2OS [5]	1.4	–
Vero E6 [7]	2.7	–
Vero E6 [12]	–	3.2
